Measurements from patent US20240002391A1, “4-ALKOXYPYRROLO[2,1-F][1,2,4]TRIAZINES AND PREPARATION AND USES THEREOF” (BioSplice Therapeutics, Inc., priority 2022, published 2024).
pIC50: −log10 of the molar value.

Molecular target: recombinant DYRK1A kinase (Homo sapiens (Human), UniProt Q13627)
Assay: DYRK1A kinase assay (Ser/Thr 18 peptide Z-lyte FRET)
Format: biochemical
Conditions: DYRK1A kinase activity, Z-lyte Ser/Thr 18 peptide, 15 μM ATP; method text calls the value IC50; read-out: EC50 (the source's name)
Summary of the method: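 Kinase 0.25 μg/mL + ATP 15 μM + Ser/Thr 18 peptide 4 μM, 1 h RT with cpd (10 μM top, 1:3, 11 pts, n=2). Dev. reagent A 1 h RT. Ex 400, Em 455/520 ratio → % phos. → IC50, nonlinear fit.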

pIC50 | SMILES
6.81 | CN1C[C@H](F)[C@H](Nc2nc(O)c3c(-c4cnc5nccn5c4)ccn3n2)C1 [Compound 261, 2-(((3R,4S)-4-Fluoro-1-methylpyrrolidin-3-yl)amino)-5-(imidazo[1,2-a]pyrimidin-6-yl)pyrrolo[2,1-f][1,2,4]triazin-4-ol]
7.25 | COc1nc(N[C@@H]2[C@@H]3COC[C@@H]32)nn2ccc(-c3ccn4nccc4c3)c12 [Compound 80, N-((1R,5S,6s)-3-Oxabicyclo[3.1.0]hexan-6-yl)-4-methoxy-5-(pyrazolo[1,5-a]pyridin-5-yl)pyrrolo[2,1-f][1,2,4]triazin-2-amine]
8.48 | COc1nc(N[C@@H]2CCN(C)C[C@@H]2F)nn2ccc(-c3ccc4nccnc4c3)c12 [Compound 367, N-((3S,4R)-3-Fluoro-1-methylpiperidin-4-yl)-4-methoxy-5-(quinoxalin-6-yl)pyrrolo[2,1-f][1,2,4]triazin-2-amine]
8.77 | COc1nc(N[C@H]2CC[C@](C)(O)CC2)nn2ccc(-c3cc(F)c4nc(C)n(CC(F)F)c4c3)c12 [Compound 151, trans-4-((5-(1-(2,2-difluoroethyl)-4-fluoro-2-methyl-1H-benzo[d]imidazol-6-yl)-4-methoxypyrrolo[2,1-f][1,2,4]triazin-2-yl)amino)-1-methylcyclohexan-1-ol]
8.89 | COc1nc(NC2CCC(=O)N(C)C2)nn2ccc(-c3ccc4nnn(CC(F)F)c4c3)c12 (stereo not drawn) [Compound 793, 5-((5-(1-(2,2-Difluoroethyl)-1H-benzo[d][1,2,3]triazol-6-yl)-4-methoxypyrrolo[2,1-f][1,2,4]triazin-2-yl)amino)-1-methylpiperidin-2-one]
8.29 | COc1nc(NC[C@@H]2CNCCO2)nn2ccc(-c3ccc4nnn(C)c4c3)c12 [Compound 623, (S)-4-Methoxy-5-(1-methyl-1H-benzo[d][1,2,3]triazol-6-yl)-N-(morpholin-2-ylmethyl)pyrrolo[2,1-f][1,2,4]triazin-2-amine]
8.60 | COc1nc(NC2CC3CC3C2)nn2ccc(-c3cnc4nccn4c3)c12 (stereo not drawn) [Compound 976, N-(Bicyclo[3.1.0]hexan-3-yl)-5-(imidazo[1,2-a]pyrimidin-6-yl)-4-methoxypyrrolo[2,1-f][1,2,4]triazin-2-amine]
8.66 | COc1nc(N[C@@H]2CCN(C(=O)C3(C#N)CC3)CC2(F)F)nn2ccc(-c3ccc4nnn(CC(F)F)c4c3)c12 [Compound 791, (R)-1-(4-((5-(1-(2,2-Difluoroethyl)-1H-benzo[d][1,2,3]triazol-6-yl)-4-methoxypyrrolo[2,1-f][1,2,4]triazin-2-yl)amino)-3,3-difluoropiperidine-1-carbonyl)cyclopropane-1-carbonitrile]
8.77 | COc1nc(NC2CCC3(CC2)CN(C(C)=O)C3)nn2ccc(-c3ccc4nc(C)n(CCO)c4c3)c12 [Compound 173, 1-(7-((5-(1-(2-hydroxyethyl)-2-methyl-1H-benzo[d]imidazol-6-yl)-4-methoxypyrrolo[2,1-f][1,2,4]triazin-2-yl)amino)-2-azaspiro[3.5]nonan-2-yl)ethan-1-one]
7.84 | COc1nc(NC2CCN(CCF)CC2)nn2ccc(-c3ccn4nccc4c3)c12 [Compound 24, N-(1-(2-Fluoroethyl)piperidin-4-yl)-4-methoxy-5-(pyrazolo[1,5-a]pyridin-5-yl)pyrrolo[2,1-f][1,2,4]triazin-2-amine]
9.52 | COc1nc(N[C@H]2CC[C@H](O)CC2)nn2ccc(-c3ccc4nnn(CC(F)F)c4c3)c12 [Compound 719, trans-4-((5-(1-(2,2-Difluoroethyl)-1H-benzo[d][1,2,3]triazol-6-yl)-4-methoxypyrrolo[2,1-f][1,2,4]triazin-2-yl)amino)cyclohexan-1-ol]
8.89 | COc1nc(NCC(C)(C)C#N)nn2ccc(-c3ccc4nnn(CC(F)F)c4c3)c12 [Compound 695, 3-((5-(1-(2,2-Difluoroethyl)-1H-benzo[d][1,2,3]triazol-6-yl)-4-methoxypyrrolo[2,1-f][1,2,4]triazin-2-yl)amino)-2,2-dimethylpropanenitrile]
6.96 | COc1nc(N[C@H]2C[C@@](C)(O)C2)nn2ccc(-c3cc4ccncc4[nH]3)c12 [Compound 283, cis-3-((4-Methoxy-5-(1H-pyrrolo[2,3-c]pyridin-2-yl)pyrrolo[2,1-f][1,2,4]triazin-2-yl)amino)-1-methylcyclobutan-1-ol]
8.68 | COc1nc(N[C@@H]2CCN(C3COC3)CC2(F)F)nn2ccc(-c3ccc4ncccc4c3)c12 [Compound 321, (R)—N-(3,3-Difluoro-1-(oxetan-3-yl)piperidin-4-yl)-4-methoxy-5-(quinolin-6-yl)pyrrolo[2,1-f][1,2,4]triazin-2-amine]
8.21 | COc1nc(NC2CCC3(CC2)COC3)nn2ccc(-c3ccn4nccc4c3)c12 [Compound 395, 4-Methoxy-5-(pyrazolo[1,5-a]pyridin-5-yl)-N-(2-oxaspiro[3.5]nonan-7-yl)pyrrolo[2,1-f][1,2,4]triazin-2-amine]
8.14 | COc1nc(N[C@H](C)C2CC2)nn2ccc(-c3cnc4nccn4c3)c12 [Compound 231, (R)—N-(1-Cyclopropylethyl)-5-(imidazo[1,2-a]pyrimidin-6-yl)-4-methoxypyrrolo[2,1-f][1,2,4]triazin-2-amine]
8.85 | COc1nc(N[C@H]2C[C@](C)(C(=O)N(C)C)C2)nn2ccc(-c3ccc4nnn(C)c4c3)c12 [Compound 212, trans-3-((4-Methoxy-5-(1-methyl-1H-benzo[d][1,2,3]triazol-6-yl)pyrrolo[2,1-f][1,2,4]triazin-2-yl)amino)-N,N,1-trimethylcyclobutane-1-carboxamide]
8.74 | COc1nc(NC2CCC3(CC2)CN(C(C)=O)C3)nn2ccc(-c3cnc4nccn4c3)c12 [Compound 273, 1-(7-((5-(Imidazo[1,2-a]pyrimidin-6-yl)-4-methoxypyrrolo[2,1-f][1,2,4]triazin-2-yl)amino)-2-azaspiro[3.5]nonan-2-yl)ethan-1-one]
8.96 | CNC(=O)c1cnc2ccc(-c3ccn4nc(N[C@H]5CC[C@](C)(O)CC5)nc(OC)c34)cn12 [Compound 441, 6-(2-(((1r,4r)-4-Hydroxy-4-methylcyclohexyl)amino)-4-methoxypyrrolo[2,1-f][1,2,4]triazin-5-yl)-N-methylimidazo[1,2-a]pyridine-3-carboxamide]
8.82 | COc1nc(NC2CCCCC2)nn2ccc(-c3cnc4nccn4c3)c12 [Compound 944, N-Cyclohexyl-5-(imidazo[1,2-a]pyrimidin-6-yl)-4-methoxypyrrolo[2,1-f][1,2,4]triazin-2-amine]
7.55 | COc1nc(NC2CCN(C3CC(F)(F)C3)CC2)nn2ccc(-c3ccc4ncccc4c3)c12 [Compound 306, N-(1-(3,3-Difluorocyclobutyl)piperidin-4-yl)-4-methoxy-5-(quinolin-6-yl)pyrrolo[2,1-f][1,2,4]triazin-2-amine]
8.70 | COc1nc(N[C@H]2CC[C@@H](NC(C)=O)CC2)nn2cc(F)c(-c3ccc4ncccc4c3)c12 [Compound 1054, N-(cis-4-((6-Fluoro-4-methoxy-5-(quinolin-6-yl)pyrrolo[2,1-f][1,2,4]triazin-2-yl)amino)cyclohexyl)acetamide]
8.11 | COc1nc(N[C@H]2CC[C@](C)(O)CC2)nn2ccc(-c3ccn4ncnc4c3)c12 [Compound 554, (1r,4r)-4-((5-([1,2,4]Triazolo[1,5-a]pyridin-7-yl)-4-methoxypyrrolo[2,1-f][1,2,4]triazin-2-yl)amino)-1-methylcyclohexan-1-ol]
8.62 | COc1nc(NC23CCC(O)(CC2)C3)nn2ccc(-c3cnc4nccn4c3)c12 [Compound 978, 4-((5-(Imidazo[1,2-a]pyrimidin-6-yl)-4-methoxypyrrolo[2,1-f][1,2,4]triazin-2-yl)amino)bicyclo[2.2.1]heptan-1-ol]
8.85 | COc1nc(N[C@H]2CCN(CCO)C[C@H]2F)nn2ccc(-c3ccc4nnn(CC(F)F)c4c3)c12 [Compound 756, 2-((3R,4S)-4-((5-(1-(2,2-Difluoroethyl)-1H-benzo[d][1,2,3]triazol-6-yl)-4-methoxypyrrolo[2,1-f][1,2,4]triazin-2-yl)amino)-3-fluoropiperidin-1-yl)ethan-1-ol]
7.48 | COc1nc(N[C@H]2CC[C@](C)(O)CC2)nn2ccc(-c3cc4ncccc4[nH]3)c12 [Compound 280, trans-4-((4-Methoxy-5-(1H-pyrrolo[3,2-b]pyridin-2-yl)pyrrolo[2,1-f][1,2,4]triazin-2-yl)amino)-1-methylcyclohexan-1-ol]
7.20 | COc1nc(NC2CC3(C2)CN(C(=O)OC(C)(C)C)C3)nn2ccc(-c3ccn4nccc4c3)c12 [Compound 92, tert-Butyl 6-((4-methoxy-5-(pyrazolo[1,5-a]pyridin-5-yl)pyrrolo[2,1-f][1,2,4]triazin-2-yl)amino)-2-azaspiro[3.3]heptane-2-carboxylate]
8.59 | COc1nc(N[C@@H]2CCN(CCF)C[C@@H]2F)nn2ccc(-c3ccc4nc(C)n(CC(F)F)c4c3)c12 [Compound 129, 5-(1-(2,2-Difluoroethyl)-2-methyl-1H-benzo[d]imidazol-6-yl)-N-((3S,4R)-3-fluoro-1-(2-fluoroethyl)piperidin-4-yl)-4-methoxypyrrolo[2,1-f][1,2,4]triazin-2-amine]
8.16 | COc1nc(N[C@@H]2CCNCC2(F)F)nn2ccc(-c3ccc4ncnn4c3)c12 [Compound 575, (R)-5-([1,2,4]Triazolo[1,5-a]pyridin-6-yl)-N-(3,3-difluoropiperidin-4-yl)-4-methoxypyrrolo[2,1-f][1,2,4]triazin-2-amine]
8.70 | COc1nc(N[C@@H](C)C2COC2)nn2ccc(-c3cnc4nccn4c3)c12 [Compound 928, (S)-5-(Imidazo[1,2-a]pyrimidin-6-yl)-4-methoxy-N-(1-(oxetan-3-yl)ethyl)pyrrolo[2,1-f][1,2,4]triazin-2-amine]
